Common to all, as to assay type: in vivo
In one assay the test system is Spodoptera frugiperda. As to the kind of experiment: Spodoptera frugiperda spray test. To be noted: 168 h, after 7 days, larvae on maize leaf sections. An outline of the steps: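 Percent larval kill read at day 7 on Zea mays leaf pieces that were spray-treated and, after drying, infested. Spray preparations made by dilution with emulsifier-containing water (1000 ppm).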

The next assay concerns Ctenocephalides felis. As to the kind of experiment: Ctenocephalides felis oral test. To be noted: 48 h, 100 ppm in cattle blood, after 2 days, adult unfed cat fleas. The essentials:
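Compound dissolved in DMSO and diluted in cattle blood to test concentration, offered to ~20 unfed adult fleas via a parafilm-sealed blood chamber held at 37° C (fleas at room temperature). Kill recorded at 2 days as % mortality.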

In the next assay the test system is Boophilus microplus. As to the kind of experiment: Boophilus microplus injection test. To be noted: Rhipicephalus microplus, 168 h; 20 μg/animal injected into the abdomen; adult engorged female ticks; egg deposition after 7 days; read-out: efficacy (infertile eggs). The essentials: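 Efficacy, from 0% (all eggs fertile) to 100% (all infertile), was scored on eggs laid by five engorged adult females. Each female was injected intra-abdominally with 1 μl of compound solution in DMSO. Fertile egg laying was checked at 7 days, with uncertain eggs kept until hatching at about 42 days.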

The test system of another assay is Diabrotica balteata. As to the kind of experiment: Diabrotica balteata spray test. To be noted: Diabrotica balteata, in Triticum aestivum, 168 h, after 7 days, larvae on wheat seeds, read-out: efficacy (seedlings grown up); for pest or weed control at 80 µg/disc, 250 g/ha: 80 μg/well (=250 g/ha); for pest or weed control at 160 µg/disc, 500 g/ha: 160 μg/well (=500 g/ha). The essentials: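 Scoring at 7 days compares seedling growth with untreated, uninfested controls (100% = equal growth, 0% = none grown). Wheat seedlings germinated 1 day on agar, 5 per well, received a spray of test solution made in 1000 ppm emulsifier water. Each unit then received 10–20 beetle larvae.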

The test system of assay [1] is Aedes aegypti strain MONHEIM. As to the kind of experiment: Aedes aegypti test (AEDSAE surface treatment & contact assay). To be noted: 24 hours after contact, read-out: efficacy (mortality); for mortality at 20 mg/m2: surface concentration 20 mg/m^2, exposure 30 minutes. How it is done: Aedes Aegypti Test (AEDSAE Surface Treatment & Contact Assay)
(§1) Solvent: Aceton+2000 ppm rapeseed oil methyl ester (RME)
In order to produce a sufficient, active ingredient containing solution it is necessary to solve the test compound in the solvent-mix (acetone at 2 mg/ml/RME 2000 ppm). This solution is pipetted onto a glazed tile and after evaporation of the acetone, adult mosquitoes of the species Aedes aegypti strain MONHEIM are placed onto the dried surface. The exposure time is 30 minutes.
(§2) Mortality in percent (%) is determined 24 hours after contact of the insects to the treated surface. 100% mortality means that all tested insects are dead, whereas 0% means that no insect died.

Assay [2] has as its system Anopheles funestus strain FUMOZ-R. As to the kind of experiment: Anopheles funestus test (ANPHFU surface treatment & contact assay). To be noted: 24 hours after contact, read-out: efficacy (mortality); for mortality at 4 mg/m2: surface concentration 4 mg/m^2, exposure 30 minutes; for mortality at 20 mg/m2: surface concentration 20 mg/m^2, exposure 30 minutes. How it is done: Anopheles funestus Test (ANPHFU Surface Treatment & Contact Assay)
as §1
In order to produce a sufficient, active ingredient containing solution it is necessary to solve the test compound in the solvent-mix (acetone at 2 mg/ml/RME 2000 ppm). This solution is pipetted onto a glazed tile and after evaporation of the acetone, adult mosquitoes of the species Anopheles funestus strain FUMOZ-R (Hunt et al., Med. Vet. Entomol. 2005 September; 19(3): 271-275) are placed onto the dried surface. The exposure time is 30 minutes.
as §2

In assay [3] the test system is Culex quinquefasciatus strain P00. Put plainly: Culex quinquefasciatus test (CULXFA surface treatment & contact assay). To be noted: surface concentration 20 mg/m^2, exposure 30 minutes, 24 hours after contact, read-out: efficacy (mortality). The method, then:
Culex Quinquefasciatus Test (CULXFA Surface Treatment & Contact Assay)
as §1
In order to produce a sufficient, active ingredient containing solution it is necessary to solve the test compound in the solvent-mix (acetone at 2 mg/ml/RME 2000 ppm). This solution is pipetted onto a glazed tile and after evaporation of the acetone, adult mosquitoes of the species Culex quinquefasciatus strain P00 are placed onto the dried surface. The exposure time is 30 minutes.
as §2

For assay [4], the system named is Myzus persicae. Put plainly: Myzus persicae spray test. To be noted: foliar, 120 h, after 5 days, Chinese cabbage leaf disks. How it is done: Myzus persicae—Spray Test
To produce a suitable preparation of active compound, 1 part by weight of active compound is mixed with the stated amount of solvents and is diluted with water, containing an emulsifier concentration of 1000 ppm, to the desired concentration. Further test concentrations are prepared by dilution with emulsifier containing water.
Chinese cabbage (Brassica pekinensis) leaf disks infected with all instars of the green peach aphid (Myzus persicae), are sprayed with a preparation of the active ingredient of the desired concentration.
After 5 days mortality in % is determined. 100% means all aphids have been killed and 0% means none of the aphids have been killed.

Assay [5] concerns Myzus persicae. Put plainly: Myzus persicae oral test. To be noted: 120 h, 4 ppm, after 5 days. The essentials:
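Aphid mortality (%) was recorded 5 days after a mixed Myzus persicae population began sucking, through parafilm, on compound solutions (acetone stock diluted with water) combined with sugar-supplemented IPL41 medium.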

The subject of another assay is Nezara viridula. Put plainly: Nezara viridula spray test. To be noted: 96 h, 500 g/ha, after 4 days, larvae on barley plants. An outline of the steps: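 Mortality (%) was assessed at day 4, from 0% (no bugs dead) to 100% (all dead). The spray solution was compound diluted to test concentration in water with 1000 ppm emulsifier and applied to barley carrying southern green stink bug larvae.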

The text below walks through data of patent US12171229B2, “Heteroaryl-triazole and heteroaryl-tetrazole compounds as pesticides” (BAYER AKTIENGESELLSCHAFT, priority 2018, dated 2024).

In the assay on Spodoptera frugiperda, `C[C@H](NC(=O)c1cc(Cl)cc(C(F)(F)F)c1)c1ncnn1-c1ccc(SC(F)(F)F)cn1` [Example I-026, 3-chloro-5-(trifluoromethyl)-N-[(1S)-1-(1-{5-[(trifluoromethyl)sulfanyl]pyridin-2-yl}-1H-1,2,4-triazol-5-yl)ethyl]benzamide] showed a mortality at 100 g/ha of 100% and a mortality at 500 g/ha of 100%. The mortality at 100 ppm in the assay on Ctenocephalides felis is 100%. In addition, in the assay on Boophilus microplus, the pest or weed control at 0.02 mg turned out to be 100%. Besides, in the assay on Diabrotica balteata, the pest or weed control at 80 µg/disc, 250 g/ha is 100% and the pest or weed control at 160 µg/disc, 500 g/ha was 100%. In addition, the mortality at 20 mg/m2 in assay [1] fell in the range of 90 to 100%. Besides, in [2], the mortality at 4 mg/m2 fell in the range of 85 to 100% and the mortality at 20 mg/m2 was 90 to 100%. Further, in [3], the mortality at 20 mg/m2 lay within 90 to 100%.

As for `C[C@H](NC(=O)c1cc(Cl)cc(C(F)(F)F)c1)c1ncnn1C1CCS(=O)(=O)C1` (single isomer, unassigned) [Example I-024], in the assay with Ctenocephalides felis, the mortality at 100 ppm amounted to 100%. In addition, in the assay on Myzus persicae [4], the mortality at 100 g/ha was 90%. The pest or weed control at 0.02 mg with Boophilus microplus is 100%. Besides, in the assay on Diabrotica balteata, the pest or weed control at 80 µg/disc, 250 g/ha was 100% and the pest or weed control at 160 µg/disc, 500 g/ha amounted to 100%. Moreover, in the assay with Myzus persicae [5], the mortality at 4 ppm amounted to 100%. In addition, the mortality at 20 mg/m2 in assay [2] was in the range of 90 to 100%. In assay [3], the mortality at 20 mg/m2 was in the range of 90 to 100%.

Consider `C[C@H](NC(=O)c1cc(Cl)cc(C(F)(F)F)c1)c1ncnn1-c1ccc(N)cn1` [Example I-030, N-{(1S)-1-[1-(5-aminopyridin-2-yl)-1H-1,2,4-triazol-5-yl]ethyl}-3-chloro-5-(trifluoromethyl)benzamide], for which the mortality at 100 g/ha in the assay on Spodoptera frugiperda turned out to be 83%; in the assay with Myzus persicae [4], 90%. Besides, the mortality at 500 g/ha with Spodoptera frugiperda and in the assay with Nezara viridula was 100% each time. The mortality at 100 ppm with Ctenocephalides felis is 100%. In addition, in the assay on Boophilus microplus, the pest or weed control at 0.02 mg was 100%. Besides, the pest or weed control at 80 µg/disc, 250 g/ha with Diabrotica balteata was 100%. For the same compound, in the assay on Diabrotica balteata, the pest or weed control at 160 µg/disc, 500 g/ha is 80%. Further, the mortality at 20 mg/m2 in assay [1], in [2] and in assay [3] was 90 to 100% throughout. Moreover, the mortality at 4 ppm with Myzus persicae [5] was 100%.

Compound `CNC(=O)c1ccc(-n2ncnc2[C@H](C)NC(=O)c2cc(Cl)cc(C(F)(F)F)c2)nc1` [Example I-038, 6-(5-{(1S)-1-[3-chloro-5-(trifluoromethyl)benzamido]ethyl}-1H-1,2,4-triazol-1-yl)-N-methylnicotinamide] registered a mortality at 100 g/ha in the assay on Spodoptera frugiperda of 100%. The mortality at 500 g/ha is 100% in the assay on Spodoptera frugiperda and 90% in the assay with Myzus persicae [4] (500 g/ha). Moreover, the pest or weed control at 80 µg/disc, 250 g/ha in the assay with Diabrotica balteata was determined as 100%. Moreover, the pest or weed control at 160 µg/disc, 500 g/ha in the assay on Diabrotica balteata was 100%. In addition, the mortality at 4 mg/m2 is 90 to 100% in [1] (surface concentration 4 mg/m^2, exposure 30 minutes) and 85 to 100% in [2]. Besides, the mortality at 20 mg/m2 in assay [1], in [2] and in [3] was 90 to 100% throughout. The mortality at 4 ppm in the assay with Myzus persicae [5] amounted to 100%.

As usually defined, the mortality is the percentage killed.
